Measurements reported in paper PMC9181887, “In Vitro Antithrombotic, Hematological Toxicity, and Inhibitor Studies of Protocatechuic, Isovanillic, and p-Hydroxybenzoic Acids from Maclura tricuspidata (Carr.) Bur” (Molecules, 2022).
Where two headings read alike, the source gives them in different places.

Assays:
[1] = target: T1, human thrombin (Homo sapiens, UniProt P00734); test: Thrombin activity and kinetic/inhibitor assay; format: biochemical; settings: for inhibition type against thrombin: from Kik/Kiv ratio and Lineweaver–Burk plots; for activity of thrombin: highest concentration of each compound, p < 0.01; for IC50 / Ki / Kik/Kiv / Kcat / Vmax: thrombin; for Vmax value of thrombin decreased by, fold of non-treated: vs non-treated 0.381 ± 0.011 mU/min; for Vmax value of thrombin decreased by, fold of non-treated / Km value of thrombin reduced by, fold of non-treated / Kcat values of thrombin reduced by, fold of non-treated: compound 0.065–1.3 mM; for Km value of thrombin reduced by, fold of non-treated: vs non-treated 0.566 ± 0.025 mM; for Kcat values of thrombin reduced by, fold of non-treated: vs non-treated 109.87 ± 3.16 s^−1
T1 construct: purchased Sigma-Aldrich
Method: To determine the thrombin activity, various concentrations of compounds were treated with 1 U human thrombin in 100 μL of 20 mM Tris-HCl, as previously described. The reaction solutions were incubated for 15 min at 37 °C. After the incubation, 1 mM chromogenic substrate for thrombin (S-2238, HD-Phe-Pip-Arg-p-nitroanilide) was added and incubated for 1 h at 37 °C. Absorbance was measured at 405 nm to determine the enzymatic activity. To determine FXa activity, various concentrations of the compounds were mixed with 1 U human FXa in 20 mM Tris-HCl (pH 7.4) in volume of 100 μL, followed by incubation for 15 min at 37 °C. After adding 1 mM N-benzoyl-Ile-Glu-Gly-Arg-p-nitroanilide, a highly specific chromogenic peptide substrate for FXa, the reaction solutions were incubated for 1 h at 37 °C. The residual activity of FXa was measured at 405 nm and is presented as a percentage of inhibition. To investigate FXIIIa activity, various concentrations of the compounds were mixed with 1 U human FXIIIa in 20 mM Tris-HCl (pH 7.4) in a volume of 100 μL, followed by, incubation for 15 min at 37 °C as previously described. The residual activity of FXIIIa was measured using casein and fibrinogen-HRP, according to the manufacturer’s instructions, and was presented as a percentage of inhibition. The negative control was generated by treatment with only thrombin, FXa, or FXIIIa without treatment with any compound.
Kinetic assays were performed using PA, IVA, and 4-HA for procoagulant proteases (thrombin and FXa) and fibrinoligase (FXIIIa). The kinetic constants were calculated using Lineweaver–Burk plots based on the initial reaction rates with different concentrations (0.1, 0.5, 1, and 2 mM) of each substrate for thrombin, FXa, and FXIIIa treated with or without the compounds (0.065, 0.13, 0.33, 0.65, and 1.30 mM [1–20 μg]) in a total volume of 100 μL. The Michaelis–Menten constant (Km) and maximal velocity (Vmax) were calculated from the x and y intercepts, respectively. […] The median inhibitory concentration (IC50) was defined as the concentration required to reach a 50% reduction in the activity of the three target factors. The Kik and Kiv inhibition constants were calculated using a previously described method. The inhibition type of the compounds against the three target factors was evaluated according to a previously described inhibition type definition.

[2] = tested on: diabetic rats; parameters: method as in PMID 20824965, PMID 9869276; settings: cited from earlier work
[3] = tested on: fibrin clot network (Alexa Fluor 488 fibrinogen, thrombin); test: Fibrin clot assay using a fluorescence microscope; format: biochemical, human; settings: fluorescent fibrinogen and thrombin, 30 min
Method: Fibrin clots were prepared by mixing 2.6 μM human fibrinogen and 0.4 μM Alexa Fluor 488 fibrinogen with 0.25 U/mL of thrombin in 20 mM Tris-HCl (pH 7.4) in a glass-bottom dish and treated with compounds or 20 IU u-PA as previously described. The mixtures were incubated for 30 min at 37 °C in the dark. Fibrin clots were observed under a fluorescence microscope (Nikon, Eclipse TE 2000-U, Kyoto, Japan) and photographed. Fibrin clots pre-treated with saline (control group) or […] (positive control group). Quantitative analysis of the fluorescent fibrin clots was performed using the ImageJ 1.46 b image analysis software.

[4] = tested on: platelet aggregation; parameters: method as in PMID 20824965, PMID 9869276; settings: sodium arachidonate-induced platelet aggregation; cited from earlier work
[5] = tested on: platelet aggregation; parameters: method as in PMID 20824965, PMID 9869276; settings: ADP or collagen-induced platelet aggregation; cited from earlier work
[6] = tested on: human plasma; test: Coagulation assay, TT; format: biochemical; settings: 50–100 μg
Method: (§1) A coagulation assay was performed to evaluate the prolongation potential of the compounds in blood coagulation by measuring APTT, PT, and TT, as previously described. After pretreatment of the compounds with human plasma for 10 min, APTT, PT, and TT were determined by a coagulometer (Thrombostat 1) manufactured by Behnk Elektronik, Germany.

[7] = tested on: human plasma; test: Coagulation assay, PT; format: biochemical; settings: 50–100 μg
Method: as §1

[8] = tested on: erythrocytes; test: Hematological study, erythrocyte count by hemocytometer; format: cell-based; settings: up to 200 μg/mL, 10 min, vs control
Method: Figure 1 Blood cytotoxic effect of PA (A), IVA (B), and 4-HA (C). Aliquots of washed platelets (10^3/mL), erythrocytes (10^6/mL), and leukocytes (10^3/mL) were treated with or without the compounds for 10 min and cell number was determined by hemocytometer counts. Each value is the mean ± SD of triplicate measurements. * p < 0.05 and ** p < 0.01, compared to each control groups. 10–500, 10–100 μg of each compound treated.
Total white blood cells (leukocytes) and red blood cells (erythrocytes) were counted using a hemocytometer, as previously described. Blood was diluted 1:200 with Hayem’s fluid and the cells were counted in a loaded hemocytometer chamber. To count the blood platelets, blood was diluted in a ratio of 1:20 with a diluting fluid, and four large (1 mm^2) corner squares of the hemocytometer were counted under a light microscope. Aliquots of leukocytes (0.1 mL; 10^3/mL), erythrocytes (0.1 mL; 10^6/mL), and platelets (0.1 mL; 10^3/mL) were treated with or without the compounds for 10 min.

Row | SMILES | inhibition type against thrombin [1] | activity of thrombin [1] | IC50 [1] [µM] | Ki [1] [µM] | Kik/Kiv [1] | Kcat ([1]; compound 0.065 mM (1 μg)) [s⁻¹] | Vmax ([1]; compound 0.065 mM (1 μg)) [mU/min] | Kcat ([1]; compound 0.13 mM (2 μg)) [s⁻¹] | Vmax ([1]; compound 0.13 mM (2 μg)) [mU/min] | Kcat ([1]; compound 0.325 mM (5 μg)) [s⁻¹] | Vmax ([1]; compound 0.325 mM (5 μg)) [mU/min] | Kcat ([1]; compound 0.65 mM (10 μg)) [s⁻¹] | Vmax ([1]; compound 0.65 mM (10 μg)) [mU/min] | Kcat ([1]; compound 1.3 mM (20 μg)) [s⁻¹] | Vmax ([1]; compound 1.3 mM (20 μg)) [mU/min] | Vmax value of thrombin decreased by, fold of non-treated [1] | Km value of thrombin reduced by, fold of non-treated [1] | Kcat values of thrombin reduced by, fold of non-treated [1] | fibrin network structure / clot density [3] | effect on the number of erythrocytes [8] | also measured
1 | O=C(O)c1ccc(O)cc1 [4-HA, 4-hydroxybenzoic acid] | uncompetitive inhibition type | significantly decreased | 1700 | 1700 | 1.2 | 100.59 ± 1.41 | 0.349 ± 0.013 | 98.38 ± 1.24 | 0.341 ± 0.015 | 91.57 ± 0.98 | 0.317 ± 0.016 | 89.25 ± 0.77 | 0.309 ± 0.020 | 78.83 ± 1.01 | 0.273 ± 0.013 | 0.72–0.92 fold | 0.71–0.86 fold | 0.72–0.92 fold | morphological changes in the network and reduced fibrin clot density | – | plasma glucose levels [2]: reducing plasma glucose levels in a dose-dependent manner; IC50 [4]: 300 µM; IC50 [5]: 1000 to 3400 µM; TT, fold of control [6]: 1.14–1.15 fold; thrombin time (TT) ([6]; control 9.4 ± 0.2 s, p < 0.01): 10.7 to 10.8 s; PT, fold of control [7]: 1.25–1.26 fold; prothrombin time (PT) ([7]; control 20.8 ± 0.7 s, p < 0.05): 25.9 to 26.2 s
2 | COc1ccc(C(=O)O)cc1O [IVA, isovanillic acid] | uncompetitive inhibition type | significantly decreased | 925 | 923 | 1.1 | 87.72 ± 1.32 | 0.304 ± 0.013 | 94.13 ± 2.08 | 0.326 ± 0.018 | 67.14 ± 0.93 | 0.233 ± 0.010 | 54.42 ± 0.81 | 0.189 ± 0.007 | 48.31 ± 1.05 | 0.167 ± 0.008 | 0.44–0.86 fold | 0.52–0.93 fold | 0.43–0.86 fold | morphological changes in the network and reduced fibrin clot density | did not show any effect | –
3 | O=C(O)c1ccc(O)c(O)c1 [PA, protocatechuic acid] | mixed inhibition type | significantly decreased | 1110 | 1110 | 125.4 | 101.67 ± 1.44 | 0.352 ± 0.019 | 93.29 ± 1.60 | 0.323 ± 0.021 | 85.00 ± 2.13 | 0.295 ± 0.015 | 71.98 ± 1.95 | 0.249 ± 0.009 | 69.08 ± 1.15 | 0.239 ± 0.008 | 0.65–0.92 fold | – | 0.63–0.93 fold | morphological changes in the network and reduced fibrin clot density | did not show any effect | –
